According to PubChem BioAssay (NCI):
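GI50 marks 50% less growth. TGI marks complete inhibition of growth.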

Experiments:
Experiment in all cases: DTP human tumour cell line panel, 384-well format
[1] = test system: 786-0 renal
[2] = test system: A498 renal
[3] = test system: A549 NSCLC
[4] = test system: ACHN renal
[5] = test system: BT-549 breast
[6] = test system: CAKI-1 renal
[7] = test system: CCRF-CEM leukemia
[8] = test system: COLO 205 colon
[9] = test system: DU-145 prostate
[10] = test system: EKVX NSCLC
[11] = test system: HCT-116 colon
[12] = test system: HCT-15 colon
[13] = test system: HOP-62 NSCLC
[14] = test system: HOP-92 NSCLC
[15] = test system: HS 578T breast
[16] = test system: HT29 colon
[17] = test system: IGROV1 ovarian
[18] = test system: K-562 leukemia
[19] = test system: KM12 colon
[20] = test system: LOX IMVI melanoma
[21] = test system: M14 melanoma
[22] = test system: MALME-3M melanoma
[23] = test system: MCF7 breast
[24] = test system: MDA-MB-231 breast
[25] = test system: MDA-MB-435 melanoma
[26] = test system: MDA-MB-468 breast
[27] = test system: MOLT-4 leukemia
[28] = test system: NCI-H226 lung
[29] = test system: NCI-H23 lung
[30] = test system: NCI-H322M lung
[31] = test system: NCI-H460 NSCLC
[32] = test system: NCI-H522 lung
[33] = test system: NCI/ADR-RES ovarian
[34] = test system: OVCAR-3 ovarian
[35] = test system: OVCAR-4 ovarian
[36] = test system: OVCAR-5 ovarian
[37] = test system: OVCAR-8 ovarian
[38] = test system: PC-3 prostate
[39] = test system: RPMI-8226 leukemia
[40] = test system: RXF 393 renal
[41] = test system: SF-268 CNS
[42] = test system: SF-295 CNS
[43] = test system: SF-539 CNS
[44] = test system: SK-MEL-28 melanoma
[45] = test system: SK-MEL-5 melanoma
[46] = test system: SK-OV-3 ovarian
[47] = test system: SN12C renal
[48] = test system: SNB-19 CNS
[49] = test system: SNB-75 CNS
[50] = test system: SR leukemia
[51] = test system: SW-620 colon
[52] = test system: T-47D breast
[53] = test system: TK-10 renal
[54] = test system: U251 glioblastoma
[55] = test system: UACC-257 melanoma
[56] = test system: UO-31 renal

SMILES: C[C@H]1CNC(=O)c2cnn3ccc(nc23)N[C@H](C)c2cc(F)ccc2O1
- GI50 [1]: 1.29 µM
- TGI [1]: 2.66 µM
- GI50 [2]: 0.779 µM
- TGI [2]: 2.1 µM
- GI50 [3]: 0.439 µM
- TGI [3]: 10.8 µM
- GI50 [4]: 0.511 µM
- TGI [4]: 2.65 µM
- GI50 [5]: 1.07 µM
- TGI [5]: 2.3 µM
- GI50 [6]: 0.829 µM
- TGI [6]: 2.09 µM
- GI50 [7]: 0.189 µM
- TGI [7]: 0.345 µM
- GI50 [8]: 1.43 µM
- TGI [8]: 2.93 µM
- GI50 [9]: 1.43 µM
- TGI [9]: 5.04 µM
- GI50 [10]: 0.469 µM
- TGI [10]: 3.82 µM
- GI50 [11]: 0.477 µM
- TGI [11]: 11.1 µM
- GI50 [12]: 1.36 µM
- TGI [12]: 4.6 µM
- GI50 [13]: 1.12 µM
- TGI [13]: 2.85 µM
- GI50 [14]: 0.516 µM
- TGI [14]: 1.98 µM
- GI50 [15]: 0.249 µM
- TGI [15]: 1.25 µM
- GI50 [16]: 0.776 µM
- TGI [16]: 13.4 µM
- GI50 [17]: 0.229 µM
- TGI [17]: 0.911 µM
- GI50 [18]: 0.451 µM
- TGI [18]: 1.85 µM
- TGI [19]: 10.1 µM
- GI50 [20]: 0.428 µM
- TGI [20]: 1.45 µM
- GI50 [21]: 31.7 µM
- TGI [21]: > 100 µM
- GI50 [22]: 4.21 µM
- TGI [22]: 30 µM
- GI50 [23]: 0.429 µM
- TGI [23]: 15.2 µM
- GI50 [24]: 0.433 µM
- TGI [24]: 2.46 µM
- GI50 [25]: 16.1 µM
- TGI [25]: 49.8 µM
- GI50 [26]: 0.629 µM
- TGI [26]: 2.01 µM
- GI50 [27]: 0.18 µM
- TGI [27]: 0.342 µM
- GI50 [28]: 0.525 µM
- TGI [28]: 2 µM
- GI50 [29]: 0.521 µM
- TGI [29]: 6.75 µM
- GI50 [30]: 1.14 µM
- TGI [30]: 6.01 µM
- GI50 [31]: 0.391 µM
- TGI [31]: 1.69 µM
- GI50 [32]: 0.463 µM
- TGI [32]: 2.28 µM
- GI50 [33]: 10.6 µM
- TGI [33]: 22.6 µM
- GI50 [34]: 0.414 µM
- TGI [34]: 2.03 µM
- GI50 [35]: 0.687 µM
- TGI [35]: 7.35 µM
- GI50 [36]: 0.527 µM
- TGI [36]: 2.91 µM
- GI50 [37]: 1.65 µM
- TGI [37]: 4.08 µM
- GI50 [38]: 0.668 µM
- TGI [38]: 4.01 µM
- GI50 [39]: 1.61 µM
- TGI [39]: 3.76 µM
- GI50 [40]: 0.187 µM
- TGI [40]: 0.498 µM
- GI50 [41]: 0.374 µM
- TGI [41]: 1.55 µM
- GI50 [42]: 0.243 µM
- TGI [42]: 1.77 µM
- GI50 [43]: 1.02 µM
- TGI [43]: 2.23 µM
- GI50 [44]: 17.1 µM
- TGI [44]: 77.1 µM
- GI50 [45]: 6.62 µM
- TGI [45]: 20.5 µM
- GI50 [46]: 0.522 µM
- TGI [46]: 2.93 µM
- GI50 [47]: 0.664 µM
- TGI [47]: 2.26 µM
- GI50 [48]: 1.83 µM
- TGI [48]: 7.86 µM
- GI50 [49]: 0.209 µM
- TGI [49]: 0.816 µM
- GI50 [50]: 0.0372 µM
- TGI [50]: 0.116 µM
- GI50 [51]: 0.444 µM
- TGI [51]: 2.85 µM
- GI50 [52]: 1.48 µM
- TGI [52]: 15.8 µM
- GI50 [53]: 0.635 µM
- TGI [53]: 2.1 µM
- GI50 [54]: 2.29 µM
- TGI [54]: 11.4 µM
- GI50 [55]: 12.2 µM
- TGI [55]: 37.4 µM
- GI50 [56]: 1.36 µM
- TGI [56]: 2.8 µM
